Format in all cases: biochemical
In assay [1] the target is T1, human ROCK2 enzyme kinase domain (Homo sapiens, UniProt O75116).
T1 construct: GST; purchased Carna BioSciences 01-110
The assay is described as follows: fluorescence coupling (TR-FRET) enzymatic assay, ROCK2. As to conditions: 4 nM enzyme, 50 nM Ulight-CREBTide, one hour room temperature. Here is the method: (§1) Dose-response curves for compounds of the present invention were determined using a fluorescence coupling enzymatic assay using purified C-terminal truncated human ROCK1 catalytic domain (amino acids 1-477 of accession number NP_005397.1) fused to GST (Carna BioSciences, Catalog #01-109) and purified C-terminal truncated human ROCK2 enzyme kinase domain (amino acids 1-553 of accession number NP_004841.2) fused to GST BioSciences, Catalog #01-110). In addition, full length cGMP-dependent protein kinase 1 (PKG or PRKG1; amino acids 1-686 of accession number NP_006249.1) fused to GST (Carna BioSciences, Catalog #01-142), full length PKACα (PRKACA; amino acids 1-351 of accession number NP_002721.1) fused to GST (Carna BioSciences, Catalog #01-127), and C-terminal truncated human AKT1 catalytic domain (amino acids 104-480 of accession number NP_005154.1) fused to GST Biosciences, Catalog #01-101) were used as a control to measure any non-desired off-target kinase activity.
(§2) Briefly, compounds of the present invention were solubilized in DMSO and a series of 12, three-fold serial dilutions were made for each compound in 2.5% DMSO. The initial starting concentration for the serial dilutions of each compound was 10 μM or 100 μM. Control samples lacking compound, ROCK enzyme or ATP also were prepared and processed in parallel with compound test samples.
(§3) A 4 μL aliquot of each serial dilution of test compound diluted in H2O with 2.5% DMSO was added to a well containing 4 μL of 10 nM purified N-truncated ROCK1 (4 nM final concentration), 10 nM purified N-truncated ROCK2 enzyme (4 nM final concentration), 1.25 nM AKT1 (0.5 nM final concentration), 25 pM PKACA (10 pM final concentration) or 20 nM PKG (8 nM final concentration), in reaction buffer containing 50 mM Hepes, pH 7.5, 1 mM EGTA, 10 mM MgCl2, 2 mM DTT, and 0.01% Tween 20 (final concentration). To initiate the enzymatic reaction, 2 μL of a solution was added to each well to provide a final concentration of 50 nM Ulight-CREBTide peptide substrate (Perkin Elmer, Catalog #TRF0107) and 4 μM ATP for ROCK1 and AKT1 assays, […] for ROCK2 assays and 30 μM ATP for PKG assays, or 1 μM ATP for PKACA assays. The reaction mixtures were incubated at room temperature for one hour. After one hour, the reaction was stopped by the addition of a 10 solution of an Europium-labelled phospho-CREB (Ser133) antibody (Perkin Elmer, Catalog #TRF0200) in LANCE buffer supplemented with 20 mM EDTA. The stopped reaction mixtures were incubated at room temperature for 90 minutes. The TR-FRET 665/620 ratios were determined using a Clariostar monochromator plate reader instrument (BMG LabTech) in accordance with the manufacturer's instructions. The ICso value for each compound was determined from each dose-response curve using GraphPad Prism 7 software with a sigmodial dose response. Key: A is IC50≤100 nM; B is 100 nM<IC50<1000 nM; C is 1,000<IC50≤10,000 nM; D is IC50>10,000 nM

Assay [2] concerns the target T2, human AKT1 catalytic domain (Homo sapiens, UniProt P31749).
T2 construct: GST; purchased Carna BioSciences 01-101
Put plainly: fluorescence coupling (TR-FRET) enzymatic assay, AKT1 off-target control. As to conditions: 0.5 nM enzyme, 4 μM ATP, 50 nM Ulight-CREBTide, one hour room temperature. How it is done:
as §1, §2, §3
On the technique in general: TR-FRET usually uses a lanthanide donor and a delayed reading to cut background.

In the next assay the target is T3, PKACα (PRKACA) (Homo sapiens, UniProt P17612).
T3 construct: GST; purchased Carna BioSciences 01-127
The assay is described as follows: fluorescence coupling (TR-FRET) enzymatic assay, PKACA off-target control. As to conditions: 10 pM enzyme, 1 μM ATP, 50 nM Ulight-CREBTide, one hour room temperature. How it is done:
as §1, §2, §3

Assay [3] deals with T4, human ROCK1 catalytic domain (Homo sapiens, UniProt Q13464).
T4 construct: GST; purchased Carna BioSciences 01-109
T4 sequence (Q13464 1-477): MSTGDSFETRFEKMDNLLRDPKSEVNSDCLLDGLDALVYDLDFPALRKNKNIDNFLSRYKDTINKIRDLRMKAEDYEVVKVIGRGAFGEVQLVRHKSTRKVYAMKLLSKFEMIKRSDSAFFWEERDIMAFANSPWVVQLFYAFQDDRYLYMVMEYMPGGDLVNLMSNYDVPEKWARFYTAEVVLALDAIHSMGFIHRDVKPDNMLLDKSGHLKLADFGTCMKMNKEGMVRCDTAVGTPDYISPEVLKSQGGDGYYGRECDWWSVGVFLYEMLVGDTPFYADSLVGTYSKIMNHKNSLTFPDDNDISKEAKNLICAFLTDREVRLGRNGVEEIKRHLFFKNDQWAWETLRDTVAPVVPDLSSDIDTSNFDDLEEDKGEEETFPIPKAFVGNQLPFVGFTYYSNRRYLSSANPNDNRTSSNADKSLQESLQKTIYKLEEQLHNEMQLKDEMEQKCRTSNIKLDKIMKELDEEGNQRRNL
Put plainly: fluorescence coupling (TR-FRET) enzymatic assay, ROCK1. As to conditions: 4 nM enzyme, 4 μM ATP, 50 nM Ulight-CREBTide, one hour room temperature; read-out: ROCK1 IC50. How it is done: as §2
The reaction mixtures were incubated at room temperature for one hour. After one hour, the reaction was stopped by the addition of a 10 solution of an Europium-labelled phospho-CREB (Ser133) antibody (Perkin Elmer, Catalog #TRF0200) in LANCE buffer supplemented with 20 mM EDTA. The stopped reaction mixtures were incubated at room temperature for 90 minutes. […] The ICso value for each compound was determined from each dose-response curve using GraphPad Prism 7 software with a sigmodial dose response.

Assay [4] has as its target T5, cGMP-dependent protein kinase 1 (PKG or PRKG1) (Homo sapiens, UniProt Q13976).
T5 construct: GST; purchased Carna BioSciences 01-142
T5 sequence (Q13976 1-686 isoform Q13976-2): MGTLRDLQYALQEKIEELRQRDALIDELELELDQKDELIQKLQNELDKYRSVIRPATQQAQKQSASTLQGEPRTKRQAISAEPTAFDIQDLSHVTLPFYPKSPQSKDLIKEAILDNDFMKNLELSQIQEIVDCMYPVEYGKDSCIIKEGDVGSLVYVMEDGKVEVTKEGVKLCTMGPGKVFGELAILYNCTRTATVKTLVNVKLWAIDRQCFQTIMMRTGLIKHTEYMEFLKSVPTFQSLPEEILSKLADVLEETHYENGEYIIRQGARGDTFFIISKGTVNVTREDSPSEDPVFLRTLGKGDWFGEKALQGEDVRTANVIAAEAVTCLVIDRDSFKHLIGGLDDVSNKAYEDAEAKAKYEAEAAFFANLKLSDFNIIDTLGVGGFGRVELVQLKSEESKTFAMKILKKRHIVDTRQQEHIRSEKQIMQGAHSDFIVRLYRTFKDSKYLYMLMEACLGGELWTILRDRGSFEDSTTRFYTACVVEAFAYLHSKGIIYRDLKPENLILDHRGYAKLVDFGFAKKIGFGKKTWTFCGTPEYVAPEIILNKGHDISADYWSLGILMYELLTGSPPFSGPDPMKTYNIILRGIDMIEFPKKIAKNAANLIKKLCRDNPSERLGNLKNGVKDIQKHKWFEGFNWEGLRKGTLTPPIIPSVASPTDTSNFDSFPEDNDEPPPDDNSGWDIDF
The assay is described as follows: fluorescence coupling (TR-FRET) enzymatic assay, PKG off-target control. As to conditions: 8 nM enzyme, 30 μM ATP, 50 nM Ulight-CREBTide, one hour room temperature. Here is the method: as §1, §2, §3

T1 sequence (O75116 1-553): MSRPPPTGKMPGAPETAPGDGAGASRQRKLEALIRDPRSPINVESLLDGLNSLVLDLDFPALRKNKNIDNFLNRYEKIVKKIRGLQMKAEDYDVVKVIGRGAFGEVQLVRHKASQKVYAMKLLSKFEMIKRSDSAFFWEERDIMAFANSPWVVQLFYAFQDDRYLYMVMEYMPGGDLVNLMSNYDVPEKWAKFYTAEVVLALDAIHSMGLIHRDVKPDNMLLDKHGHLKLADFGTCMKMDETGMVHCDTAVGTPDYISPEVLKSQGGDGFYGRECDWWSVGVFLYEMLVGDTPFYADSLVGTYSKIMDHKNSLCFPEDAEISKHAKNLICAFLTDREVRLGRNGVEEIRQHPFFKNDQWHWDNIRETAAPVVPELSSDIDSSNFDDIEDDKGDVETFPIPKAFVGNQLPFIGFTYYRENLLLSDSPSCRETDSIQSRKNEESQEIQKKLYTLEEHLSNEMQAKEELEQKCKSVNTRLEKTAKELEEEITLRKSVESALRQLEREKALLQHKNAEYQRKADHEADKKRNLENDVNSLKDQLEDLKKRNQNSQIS
T2 sequence (P31749 104-480): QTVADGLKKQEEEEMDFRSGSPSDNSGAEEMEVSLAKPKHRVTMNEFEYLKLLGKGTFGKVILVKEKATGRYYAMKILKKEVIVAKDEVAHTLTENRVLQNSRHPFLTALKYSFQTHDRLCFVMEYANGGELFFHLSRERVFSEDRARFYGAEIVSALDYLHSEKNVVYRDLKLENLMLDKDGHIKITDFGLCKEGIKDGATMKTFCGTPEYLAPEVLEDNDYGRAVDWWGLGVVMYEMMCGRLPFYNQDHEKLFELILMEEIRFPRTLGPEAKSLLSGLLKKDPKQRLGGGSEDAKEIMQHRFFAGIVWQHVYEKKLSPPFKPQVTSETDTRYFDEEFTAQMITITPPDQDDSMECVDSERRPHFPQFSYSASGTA

On to `N#Cc1cc(N)c2c(c1)N(S(=O)(=O)c1cccc3c(=O)[nH]ccc13)CC2` [Example 31, 4-amino-1-((1-oxo-1,2-dihydroisoquinolin-5-yl)sulfonyl)indoline-6-carbonitrile], for which the IC50 (usually the concentration needed to halve the response being measured) in assay [1] is less than 0.1 µM; in assay [2] it was more than 10 µM; at PKACα (PRKACA) it was 1 to 10 µM; in assay [3], less than 0.1 µM; in assay [4], more than 10 µM.
For the molecule `CC(=O)Nc1cc(C#N)cc2c1CCN2S(=O)(=O)c1cccc2c(=O)[nH]cc(C)c12` [Example 32, N-(6-cyano-1-((4-methyl-1-oxo-1,2-dihydroisoquinolin-5-yl)sulfonyl)indolin-4-yl)acetamide], the IC50 in assay [1] is less than 0.1 µM; in assay [2], more than 10 µM; at PKACα (PRKACA), more than 10 µM; in assay [3] it was less than 0.1 µM; in assay [4], 1 to 10 µM.
Take `Cc1c[nH]c(=O)c2cccc(S(=O)(=O)N3CCc4c(N)cc(C#N)cc43)c12` [Example 33, 4-amino-1-((4-methyl-1-oxo-1,2-dihydroisoquinolin-5-yl)sulfonyl)indoline-6-carbonitrile]: the IC50 is less than 0.1 µM in assay [1]; more than 10 µM in assay [2]; more than 10 µM at PKACα (PRKACA); less than 0.1 µM in assay [3]; more than 10 µM in assay [4].
Consider `Cc1c[nH]c(=O)c2cccc(S(=O)(=O)N3CCc4c(N(C)C)cc(C#N)cc43)c12` [Example 34, 4-(dimethylamino)-1-((4-methyl-1-oxo-1,2-dihydroisoquinolin-5-yl)sulfonyl)indoline-6-carbonitrile], for which the IC50 in assay [1] is 1 to 10 µM; in assay [2], more than 10 µM; against PKACα (PRKACA), more than 10 µM; in assay [3], 1 to 10 µM; in assay [4], more than 10 µM.
Regarding `CC(=O)Nc1cc(C#N)cc2c1CCN2S(=O)(=O)c1cccc2c(=O)[nH]cc(Cl)c12` [Example 35, N-(1-((4-chloro-1-oxo-1,2-dihydroisoquinolin-5-yl)sulfonyl)-6-cyanoindolin-4-yl)acetamide], the IC50 in assay [1] is less than 0.1 µM; in assay [2], more than 10 µM; against PKACα (PRKACA) it was more than 10 µM; in assay [3], less than 0.1 µM; in assay [4] it was 1 to 10 µM.
On to `N#Cc1cc(N)c2c(c1)N(S(=O)(=O)c1cccc3c(=O)[nH]cc(Cl)c13)CC2` [Example 36, 4-amino-1-((4-chloro-1-oxo-1,2-dihydroisoquinolin-5-yl)sulfonyl)indoline-6-carbonitrile], for which the IC50 is less than 0.1 µM in assay [1]; more than 10 µM in assay [2]; more than 10 µM against PKACα (PRKACA); less than 0.1 µM in assay [3]; 1 to 10 µM in assay [4].
Consider `CN(C)c1cc(C#N)cc2c1CCN2S(=O)(=O)c1cccc2c(=O)[nH]cc(Cl)c12` [Example 37, 1-((4-chloro-1-oxo-1,2-dihydroisoquinolin-5-yl)sulfonyl)-4-(dimethylamino)indoline-6-carbonitrile], for which the IC50 was 0.1 to 1 µM in assay [1]; more than 10 µM in assay [2]; more than 10 µM on PKACα (PRKACA); 0.1 to 1 µM in assay [3]; more than 10 µM in assay [4].
On to `N#Cc1cnc2c(c1)N(S(=O)(=O)c1cccc3c(=O)[nH]ccc13)CC2` [Example 38, 1-((1-oxo-1,2-dihydroisoquinolin-5-yl)sulfonyl)-2,3-dihydro-1H-pyrrolo[3,2-b]pyridine-6-carbonitrile], for which the IC50 in assay [1] was 0.1 to 1 µM; in assay [2] it was more than 10 µM; against PKACα (PRKACA), more than 10 µM; in assay [3], 0.1 to 1 µM; in assay [4], more than 10 µM.
`Cc1c[nH]c(=O)c2cccc(S(=O)(=O)N3CCc4ncc(C#N)cc43)c12` [Example 39, 1-((4-methyl-1-oxo-1,2-dihydroisoquinolin-5-yl)sulfonyl)-2,3-dihydro-1H-pyrrolo[3,2-b]pyridine-6-carbonitrile]: the IC50 in assay [1] was 0.1 to 1 µM; in assay [2], more than 10 µM; on PKACα (PRKACA), more than 10 µM; in assay [3], 0.1 to 1 µM; in assay [4], more than 10 µM.
Turning to `N#Cc1cnc2c(c1)N(S(=O)(=O)c1cccc3c(=O)[nH]cc(Cl)c13)CC2` [Example 40, 1-((4-chloro-1-oxo-1,2-dihydroisoquinolin-5-yl)sulfonyl)-2,3-dihydro-1H-pyrrolo[3,2-b]pyridine-6-carbonitrile], the IC50 in assay [1] is less than 0.1 µM; in assay [2], more than 10 µM; against PKACα (PRKACA), more than 10 µM; in assay [3], less than 0.1 µM; in assay [4], more than 10 µM.
Turning to `CNc1cc(C#N)cc2c1CCN2S(=O)(=O)c1cccc2c(=O)[nH]cc(C)c12` [Example 41, 1-((4-methyl-1-oxo-1,2-dihydroisoquinolin-5-yl)sulfonyl)-4-(methylamino)indoline-6-carbonitrile], the IC50 in assay [1] is 0.1 to 1 µM; in assay [2] it was more than 10 µM; on PKACα (PRKACA), more than 10 µM; in assay [3] it was 0.1 to 1 µM; in assay [4] it was more than 10 µM.
Regarding `CNc1cc(C#N)cc2c1CCN2S(=O)(=O)c1cccc2c(=O)[nH]cc(Cl)c12` [Example 42, 1-((4-chloro-1-oxo-1,2-dihydroisoquinolin-5-yl)sulfonyl)-4-(methylamino)indoline-6-carbonitrile], the IC50 in assay [1] was less than 0.1 µM; in assay [2], more than 10 µM; on PKACα (PRKACA) it was more than 10 µM; in assay [3], 0.1 to 1 µM; in assay [4], more than 10 µM.
For the molecule `CCNc1cc(C#N)cc2c1CCN2S(=O)(=O)c1cccc2c(=O)[nH]cc(C)c12` [Example 43, 4-(ethylamino)-1-((4-methyl-1-oxo-1,2-dihydroisoquinolin-5-yl)sulfonyl)indoline-6-carbonitrile], the IC50 in assay [1] is 0.1 to 1 µM; in assay [2], more than 10 µM; on PKACα (PRKACA) it was more than 10 µM; in assay [3], 1 to 10 µM; in assay [4], more than 10 µM.

Values taken from patent publication US11912719B2, “Substituted isoquinolines as rock kinase inhibitors” (Cervello Therapeutics LLC, priority 2018, dated 2024).
